Key:
[1] = molecular target: T1, human GR (Homo sapiens, UniProt P04150); assay: GR agonist potency, MMTV-luciferase reporter in SW1353 cells; format: cell-based; conditions: human chondrosarcoma cell-line SW1353 stably transfected with MMTV-luciferase reporter; approx. 18 hours; data as percentage of 1 μM dexamethasone positive control
T1 construct: SW1353 naturally expresses human GR; endogenous in cells; host or cells: human chondrosarcoma cell-line SW1353 stably transfected with an MMTV-luciferase reporter construct
T1 sequence (P04150 1-777): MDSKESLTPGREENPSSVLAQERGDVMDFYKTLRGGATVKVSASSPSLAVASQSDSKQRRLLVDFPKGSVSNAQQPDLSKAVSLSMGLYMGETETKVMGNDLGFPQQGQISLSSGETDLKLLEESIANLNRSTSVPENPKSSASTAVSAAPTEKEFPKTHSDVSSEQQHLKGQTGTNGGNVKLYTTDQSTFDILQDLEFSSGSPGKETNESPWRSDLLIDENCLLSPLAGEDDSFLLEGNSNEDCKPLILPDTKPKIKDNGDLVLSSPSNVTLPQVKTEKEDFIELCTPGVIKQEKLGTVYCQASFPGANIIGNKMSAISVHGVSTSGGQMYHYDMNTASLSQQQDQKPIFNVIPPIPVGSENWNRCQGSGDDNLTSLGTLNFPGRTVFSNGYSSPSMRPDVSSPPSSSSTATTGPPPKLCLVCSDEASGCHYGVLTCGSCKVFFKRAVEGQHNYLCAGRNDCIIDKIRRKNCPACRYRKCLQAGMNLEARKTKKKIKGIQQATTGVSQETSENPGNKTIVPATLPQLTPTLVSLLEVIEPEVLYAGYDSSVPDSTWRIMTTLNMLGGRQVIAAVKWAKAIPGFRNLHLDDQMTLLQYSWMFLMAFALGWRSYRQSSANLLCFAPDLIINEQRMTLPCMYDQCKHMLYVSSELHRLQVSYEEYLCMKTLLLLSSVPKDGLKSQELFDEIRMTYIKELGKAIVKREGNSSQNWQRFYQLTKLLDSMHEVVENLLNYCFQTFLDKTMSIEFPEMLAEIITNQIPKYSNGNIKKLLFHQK
Method: Glucococorticoid receptor (GR) agonist potency was determined in the human chondrosarcoma cell-line SW1353 stably transfected with an MMTV-luciferase reporter construct. SW1353 naturally expresses human GR, which on binding a glucocorticoid agonist activates glucocorticoid response elements within the MMTV promoter, driving expression of the luciferase gene.
Frozen SW1353 cells were revived in DMEM medium, without sodium pyruvate or phenol red, supplemented with 2 mM L-glutamine, 1 μg/ml insulin, 2 mg/ml lactalbumin hydrosylate and 0.5 μg/ml ascorbate. Cells were seeded at approximately 5000 cells/well (35 μl/well) in 384-well clear bottom, tissue culture treated plates. Steroid dose-response dilutions were prepared in steroid diluent (PBS containing 2.5% (v/v) DMSO and 0.05% (v/v) pluronic detergent) and 5 μl added to each well. The volume was made up to 50 μl per well with steroid diluent. Positive control wells contained 1 μM dexamethasone. Plates were incubated for approximately 18 hours at 37° C. in an air/5% CO2 atmosphere in a humidified incubator before Britelite reagent (10 μl; Perkin-Elmer) was added to each well. Each plate was incubated for 2 minutes in the dark and luminescence quantified using a LJL Biosystems Analyst luminometer. Data for test compounds (expressed as percentage of the dexamethasone positive control) were used to construct dose response curves from which EC50 values were estimated.

[2] = Inhibition of TNF-α release from LPS stimulated isolated human PBMC; format: cell-based; conditions: Homo sapiens, PBMC, read-out: IC50 (nM) for inhibition of TNF-α release
Method: The anti-inflammatory activity of the compounds against human leukocytes in vitro was also evaluated by determining inhibition of tumour necrosis factor-α (TNF-α) release from lipopolysaccharide (LPS) stimulated isolated human peripheral mononuclear cells (PBMC).
Peripheral venous blood from healthy, non-medicated donors was collected using ethylenediaminetetraacetic acid (EDTA) as the anti-coagulant. For PBMC preparation, samples of blood were diluted 1:1 with sterile phosphate buffered saline and then separated using ACCUSPIN™ System-Histopaque®-1077 tubes (Sigma-Aldrich, St Louis, Mo.), centrifuged at 400 g for 35 minutes. Buffy coat cells were removed into PBS, centrifuged at 200 g for 10 minutes and re-suspended in PBMC assay buffer (Hanks Balanced Salt Solution, 0.28% [w/v] 4-[2-hydroxyethyl]-1-piperazineethanesulfonic acid [HEPES], 0.01% [w/v] low-endotoxin bovine serum albumin [BSA]. A differential white cell count was performed and PBMC's diluted to 1×10^6 lymphocytes per ml in PBMC assay buffer.
Test compounds were dissolved in DMSO and diluted in PBMC assay buffer (final DMSO concentration 1%) to cover an appropriate concentration range, e.g 0.001 nM to 10000 nM. Samples of test compound solution or vehicle (20 μl) were added into 96-well tissue culture treated plates (Corning) and PBMC (160 μl) added to each well. The assay mixtures were incubated at 37° C. for 1 h in a humidified incubator containing an atmosphere of air supplemented with 5% CO2 before adding LPS (20 μl of 100 ng/ml for PBMC). Plates were returned to the incubator for a further 18 hours, and then centrifuged before recovery of samples of supernatant. TNF-α in the samples was determined using an enzyme-linked immunosorbent assay (ELISA) (Invitrogen kit no CHC-1754; Invitrogen Carlsbad, Calif.) and following the manufacturers instructions. Dose response curves were constructed from which IC50 values were calculated.

Structure (SMILES) | EC50 [1] [nM] | IC50 [2] [nM]
C[C@]12C=CC(=O)C=C1[C@@H](F)C[C@H]1[C@@H]3CC[C@](OC(=O)c4ccc(Cc5ccccc5)cc4)(C(=O)OCC#N)[C@@]3(C)C[C@H](O)[C@@]12F [Example 1, cyanomethyl(6alpha,11beta,17alpha)-17-[(4-benzylbenzoyl)oxy]-6,9-difluoro-11-hydroxy-3-oxoandrosta-1,4-diene-17-carboxylate] | 22.3 | 0.095
C[C@]12C=CC(=O)C=C1[C@@H](F)C[C@H]1[C@@H]3CC[C@](OC(=O)c4ccc(-c5ccccc5)cc4)(C(=O)OCC#N)[C@@]3(C)C[C@H](O)[C@@]12F [Example 2, Cyanomethyl(6alpha,11beta,17alpha)-17-[(biphenyl-4-ylcarbonyl)oxy]-6,9-difluoro-11-hydroxy-3-oxoandrosta-1,4-diene-17-carboxylate] | 115 | 0.373
C[C@]12C=CC(=O)C=C1[C@@H](F)C[C@H]1[C@@H]3CC[C@](OC(=O)c4ccc(Sc5ccccc5)cc4)(C(=O)OCC#N)[C@@]3(C)C[C@H](O)[C@@]12F [Example 3, cyanomethyl (6alpha,11beta,17alpha)-6,9-difluoro-11-hydroxy-3-oxo-17-{[4-(phenylthio)benzoyl]oxy}androsta-1,4-diene-17-carboxylate] | 50.5 | 0.143
C[C@]12C=CC(=O)C=C1[C@@H](F)C[C@H]1[C@@H]3CC[C@](OC(=O)c4ccc(Oc5ccccc5)cc4)(C(=O)OCC#N)[C@@]3(C)C[C@H](O)[C@@]12F [Example 4, cyanomethyl (6alpha,11beta,17alpha)-6,9-difluoro-11-hydroxy-3-oxo-17-[(4-phenoxybenzoyl)oxy]androsta-1,4-diene-17-carboxylate] | 23.6 | 0.154
C[C@]12C=CC(=O)C=C1[C@@H](F)C[C@H]1[C@@H]3CC[C@](OC(=O)c4ccc(CSc5ccccc5)cc4)(C(=O)OCC#N)[C@@]3(C)C[C@H](O)[C@@]12F [Example 5, cyanomethyl (6alpha,11beta,17alpha)-6,9-difluoro-11-hydroxy-3-oxo-17-({4-[(phenylthio)methyl]benzoyl}oxy)androsta-1,4-diene-17-carboxylate] | 33.3 | 0.152
C[C@]12C=CC(=O)C=C1[C@@H](F)C[C@H]1[C@@H]3CC[C@](OC(=O)c4ccc(SCc5ccc(O)cc5)cc4)(C(=O)OCC#N)[C@@]3(C)C[C@H](O)[C@@]12F [Example 6, cyanomethyl (6alpha,11beta,17alpha)-6,9-difluoro-11-hydroxy-17-({4-[(4-hydroxybenzyl)thio]benzoyl}oxy)-3-oxoandrosta-1,4-diene-17-carboxylate] | 23.5 | 0.207
C[C@]12C=CC(=O)C=C1CC[C@H]1[C@@H]3CC[C@](OC(=O)c4ccc(-c5ccccc5)cc4)(C(=O)OCC#N)[C@@]3(C)C[C@H](O)[C@@]12F [Example 7, cyanomethyl (11beta,17alpha)-17-[(biphenyl-4-ylcarbonyl)oxy]-9-fluoro-11-hydroxy-3-oxoandrosta-1,4-diene-17-carboxylate] | 39.9 | 0.555
C[C@]12C=CC(=O)C=C1CC[C@H]1[C@@H]3CC[C@](OC(=O)c4ccc(Sc5ccccc5)cc4)(C(=O)OCC#N)[C@@]3(C)C[C@H](O)[C@@]12F [Example 8, cyanomethyl (11beta,17alpha)-9-fluoro-11-hydroxy-3-oxo-17-{[4-(phenylthio)benzoyl]oxy}androsta-1,4-diene-17-carboxylate] | 25 | 0.292
CSc1cccc(Sc2ccc(C(=O)O[C@]3(C(=O)OCC#N)CC[C@H]4[C@@H]5CCC6=CC(=O)C=C[C@]6(C)[C@@]5(F)[C@@H](O)C[C@@]43C)cc2)c1 [Example 10, cyanomethyl (11beta,17alpha)-9-fluoro-11-hydroxy-17-[(4-{[3-(methylthio)-phenyl]thio}benzoyl)oxy]-3-oxoandrosta-1,4-diene-17-carboxylate] | 62.1 | 0.826

Source: patent publication US20100303758A1, “Novel Glucocorticoid Receptor Agonists” (priority 2009, published 2010)
